Assay results published in patent US8414760B2, “Biosensor electrode mediators for regeneration of cofactors” (priority 1997, dated 2013).

How the values were obtained:
[1] = Evaluation of mediators as NADH mediators in dry strips (screen-printed electrodes, NADH dose response)
Procedure: Screen-printed electrodes incorporating 1,10-PQ and MB were produced from an organic carbon ink containing these NAD(P)H mediators at a level of 3.5 mg/g ink. The solid mediators were mixed into a commercial conducting carbon ink (Gwent Electronic Materials).
The dose response curve for the electrodes containing 1,10-PQ tested with aqueous NADH solutions (0-16.7 mM) in PBS at a poise potential of +400 mV versus a printed Ag/AgCl reference electrode is shown in FIG. 3. A slope of 0.58 nA mM^−1 NADH was recorded. The dose response curve for the electrodes containing MB tested with aqueous NADH solutions (0-12.4 mM) at a poise potential of +100 mV versus a printed Ag/AgCl reference electrode is shown in FIG. 4. An increased slope of 8.48 μA mM^−1 NADH was observed.

[2] = Dry strips containing HBDH and NAD+: response to D-3-hydroxybutyrate after storage
Procedure: Screen-printed electrodes were produced from an aqueous carbon ink incorporating 1,10-PQ or MB at a level of 2.4 or 4.3 mg/g ink, respectively, together with the enzyme HBDH (120 units/g ink) and NAD^+ (110 mg/g ink). The ink also contained a polysaccharide binder.
The electrodes were tested after 4, 14, and 26 weeks of storage (30° C., desiccated) with aqueous D-3-hydroxybutyrate solutions (0-25 mM) in PBS at a poise potential of +400 mV versus a printed Ag/AgCl reference electrode. All three dose responses were non-linear and levelled out with a current of 8.5 μA being recorded at 24 mM D-3-hydroxybutyrate.
The electrodes were tested after 2 and 14 weeks storage (30° C., desiccated) with aqueous D-3-hydroxybutyrate solutions (0-28 mM) in PBS at a poise potential of +100 mV versus a printed Ag/AgCl reference electrode. The dose response curves were similar to those in FIG. 4. A current of 8.6 μA was recorded at 24 mM D-3-hydroxybutyrate for these electrodes after 2 weeks storage. This is almost identical to responses obtained from dry strips containing 1,10-PQ.

[3] = system: D-3-Hydroxybutyrate dehydrogenase (HBDH); experiment: Assessment of mediator inhibition of D-3-hydroxybutyrate dehydrogenase (assay rate before and after filtration); type: biochemical, Pseudomonas sp.; design: Residual enzyme activity after filtration (percentage of the original activity): concentration or dose not given beside the values; conditions: for Assay Rate before filtration: 50 U/ml HBDH with mediator in Tris buffer pH 8.2, incubated 0.5 hours at 37.5 C, NADH at 340 nm, measure of efficiency as oxidant of NADH; for Residual enzyme activity after filtration (percentage of the original activity): compared with control (no mediator); for Assay Rate after filtration: enzyme reisolated from the mediator solution by filtration (30,000 cut-off), redissolved in Tris buffer
Procedure: D-3-Hydroxybutyrate dehydrogenase (HBDH; EC 1.1.1.30) from Pseudomonas sp. was purchased from Toyobo Co., Ltd. p-Nicotinamide adenine dinucleotide (NAD^+) and D,L-3-hydroxybutyric acid were supplied by Boehringer Mannheim.
A series of 18 solutions (2.5 ml each) were prepared, each containing 50 U/ml HBDH and 1.29 or 2.58 mg of the following NAD(P)H mediators: MB(3), 4-Me-BQ(4), 1-Me0-PMS (5), DCIP(6), 1,10-PQ(7), 1,7-PQ(8), 2,9-Me2-1,10-PQ(10), 1-Me-1,10-PQ^+ (11), and [Ru(bpy)2(1,10-PQ)](PF6)2 (12) in Tris buffer (50 mM, pH 8.2). A control solution was also prepared, containing enzyme but no mediator. The solutions were incubated for 0.5 hours at 37.5 C, then assayed (in triplicate) for NADH at 340 nm, using a Sigma Diagnostics D-3-hydroxybutyrate kit. The extent of the interference of the added mediator with the assay rate compared to the control afforded a quantitative measure of the mediator's efficiency as an oxidant of NADH.
The enzyme was then reisolated from the mediator solutions by filtration through a polysulfone membrane (nominal molecular weight cut-off: 30,000) in a microcentrifuge filter (Millipore). The enzyme remaining on the filter was dissolved in Tris buffer (0.2 ml), and the resulting solution was assayed (in triplicate) with the Sigma kit. By comparing the results of the assays before and after filtration, the effect of any covalently and/or irreversibly bound mediator on the enzyme activity could be determined.

Molecule | Slope of dose response curve to NADH ([1]; electrodes containing MB, NADH 0-12.4 mM, +100 mV versus Ag/AgCl) [μA mM^−1 NADH] | Current at 24 mM D-3-hydroxybutyrate ([2]; after 2 weeks storage (30° C., desiccated), +100 mV versus Ag/AgCl) [μA] | Assay Rate before filtration [3] [absorbance units/min] | Residual enzyme activity after filtration (percentage of the original activity) [3] [%] | Assay Rate after filtration [3] [absorbance units/min] | Slope of dose response curve to NADH ([1]; electrodes containing 1,10-PQ, NADH 0-16.7 mM in PBS, +400 mV versus Ag/AgCl) [nA mM^−1 NADH] | Current at 24 mM D-3-hydroxybutyrate ([2]; after 4, 14 and 26 weeks of storage (30° C., desiccated), +400 mV versus Ag/AgCl) [μA]
C[N+](C)=c1ccc2nc3c(ccc4ccccc43)oc-2c1.[Cl-] [MB, Meldola's Blue] | 8.48 | 8.6 | 0.008 | 16 | 0.026 | – | –
O=C1C(=O)c2cccnc2-c2ncccc21 [1,10-PQ, 1,10-Phenanthroline quinone] | – | – | 0.149 | – | 0.160 | 0.58 | 8.5
COS(=O)(=O)[O-].COc1cccc2c1nc1ccccc1[n+]2C [Compound 1-MeO-PMS, 1-Methoxy phenazine methosulphate] | – | – | 0.009 | 47 | 0.071 | – | –
[Ru(bpy)2(1,10-PQ)] (PF6)2 [[Ru(bpy)2(1,10-PQ)](PF6)2] | – | – | 0.114 | 98 | 0.193 | – | –
O=C1C(=O)c2ncccc2-c2ncccc21 [1,7-PQ, 1,7-Phenanthroline quinone] | – | – | 0.115 | – | 0.150 | – | –
Cc1ccc2c(n1)-c1nc(C)ccc1C(=O)C2=O [2,9-Me2-1,10-PQ, 2,9-Dimethyl-1,10-phenanthroline quinone] | – | – | 0.189 | – | – | – | –
O=C1C(Cl)=CC(=Nc2ccc(O)cc2)C=C1Cl [DCIP, 2,6-Dichloroindophenol] | – | – | 0.104 | 57 | 0.085 | – | –
CC1=CC(=O)C(=O)C=C1 [Compound 4-Me-BQ, 4-Methyl-1,2-benzoquinone] | – | – | 0.005 | 4 | 0.007 | – | –
C[n+]1cccc2c1-c1ncccc1C(=O)C2=O.O=S(=O)([O-])C(F)(F)F [1-Me-1,10-PQ^+, 1-Me-1,10-phenanthrolinium quinone trifluoromethane sulphonate] | – | – | 0.150 | 94 | 0.185 | – | –
